How the values were obtained:
Assay in all cases: viability relative to DMSO control (fraction); higher = less drug effect (more viable cells)
Conditions in all cases: 48 h
[1] = compound: CN(C)C(=O)c1cc2cnc(Nc3ccc(N4CCNCC4)cn3)nc2n1C1CCCC1 [Ribociclib]
In short: (§1)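 The cells were primary mononuclear tumour cells, either fresh or cryopreserved, isolated by Ficoll from blood or bone marrow or derived from processed lymph node. Each well of a 384-well plate received 4 × 10^4 cells onto compounds pre-plated at five concentrations, with one well per concentration. The medium was RPMI-1640 with penicillin/streptomycin, L-glutamine and human serum, and plates stood at 37 °C and 5% CO2 for 48 h. Viability is reported as CellTiter-Glo luminescence relative to the median of 16 inner DMSO wells.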

[2] = compound: COc1nc(N)nc2c1ncn2[C@@H]1O[C@H](CO)[C@@H](O)[C@@H]1O [Nelarabine]
In short: as §1

[3] = compound: NC(=O)Nc1cc(-c2cccc(F)c2)sc1C(=O)N[C@H]1CCCNC1 [AZD7762]
In short: as §1

[4] = compound: NC(=O)c1ccc(I)c([N+](=O)[O-])c1 [Iniparib]
In short: as §1

[5] = compound: C#CCC(Cc1cnc2nc(N)nc(N)c2n1)c1ccc(C(=O)N[C@@H](CCC(=O)O)C(=O)O)cc1 [Pralatrexate]
In short: as §1

[6] = compound: Cc1ccc(NC(=O)c2ccc(CN3CCN(C)CC3)cc2)cc1Nc1nccc(-c2cccnc2)n1 [Imatinib]
In short: as §1

[7] = compound: Cc1[nH]c2ccccc2c1CCNCc1ccc(/C=C/C(=O)NO)cc1 [Panobinostat]
In short: as §1

[8] = compound: Cc1cn(-c2cc(NC(=O)c3ccc(C)c(Nc4nccc(-c5cccnc5)n4)c3)cc(C(F)(F)F)c2)cn1 [Nilotinib]
In short: as §1

[9] = compound: CC(C)C[C@H](NC(=O)[C@H](Cc1ccccc1)NC(=O)c1cnccn1)B(O)O [Bortezomib]
In short: as §1

[10] = compound: C1=N/C2=N/c3ccc(OCCN4CCCC4)c(c3)COC/C=C/COCc3cccc(c3)C(=C1)N2 [Pacritinib]
In short: as §1

[11] = compound: CC(C)(C)OC(=O)Nc1ccc(-c2cc(C(=O)NCCCCCCC(=O)NO)no2)cc1
In short: as §1

[12] = compound: CC[C@H](NC(=O)[C@H](C)NC)C(=O)N1C[C@@H](O)C[C@H]1Cc1c(-c2[nH]c3cc(F)ccc3c2C[C@@H]2C[C@H](O)CN2C(=O)[C@H](CC)NC(=O)[C@H](C)NC)[nH]c2cc(F)ccc12 [Birinapant]
In short: as §1

[13] = compound: OCc1ccc(-c2ccc(-c3ccc(CO)s3)o2)s1
In short: as §1

[14] = compound: CC(=O)[C@]1(O)Cc2c(O)c3c(c(O)c2[C@@H](O[C@H]2C[C@H](N)[C@H](O)[C@H](C)O2)C1)C(=O)c1ccccc1C3=O [Idarubicin]
In short: as §1

[15] = compound: CCCS(=O)(=O)Nc1ccc(F)c(C(=O)c2c[nH]c3ncc(-c4ccc(Cl)cc4)cc23)c1F [Vemurafenib]
In short: as §1

primary AML patient cells (S002)
viability ([1]; 0.024 µM): 0.981
viability ([1]; 0.12 µM): 1.1
viability ([1]; 0.6 µM): 1.03
viability ([1]; 3 µM): 1.06
viability ([1]; 15 µM): 0.736
viability ([2]; 0.024 µM): 1.07
viability ([2]; 0.12 µM): 0.999
viability ([2]; 0.6 µM): 0.946
viability ([2]; 3 µM): 0.961
viability ([2]; 15 µM): 0.779
viability ([3]; 0.024 µM): 0.79
viability ([3]; 0.12 µM): 0.964
viability ([3]; 0.6 µM): 0.647
viability ([3]; 3 µM): 0.526
viability ([3]; 15 µM): 0.38
viability ([4]; 0.024 µM): 1.07
viability ([4]; 0.12 µM): 1.17
viability ([4]; 0.6 µM): 0.968
viability ([4]; 3 µM): 1.04
viability ([4]; 15 µM): 0.831
viability ([5]; 0.024 µM): 1.02
viability ([5]; 0.12 µM): 0.828
viability ([5]; 0.6 µM): 0.79
viability ([5]; 3 µM): 1.07
viability ([5]; 15 µM): 0.928
viability ([6]; 0.08 µM): 1
viability ([6]; 0.4 µM): 1.1
viability ([6]; 2 µM): 1.17
viability ([6]; 10 µM): 1.26
viability ([7]; 0.00064 µM): 1.1
viability ([7]; 0.0032 µM): 0.723
viability ([7]; 0.016 µM): 0.282
viability ([7]; 0.08 µM): 0.318
viability ([7]; 0.4 µM): 0.242
viability ([8]; 0.016 µM): 1.1
viability ([8]; 0.08 µM): 1.24
viability ([8]; 0.4 µM): 1.18
viability ([8]; 2 µM): 1.23
viability ([8]; 10 µM): 1.31
viability ([9]; 0.008 µM): 0.958
viability ([9]; 0.04 µM): 1.03
viability ([9]; 0.2 µM): 0.959
viability ([9]; 1 µM): 0.953
viability ([9]; 5 µM): 0.986
viability ([10]; 0.024 µM): 0.955
viability ([10]; 0.12 µM): 0.884
viability ([10]; 0.6 µM): 0.814
viability ([10]; 3 µM): 0.421
viability ([10]; 15 µM): 0.274
viability ([11]; 0.024 µM): 1.04
viability ([11]; 0.12 µM): 0.659
viability ([11]; 0.6 µM): 0.419
viability ([11]; 3 µM): 0.307
viability ([11]; 15 µM): 0.272
viability ([12]; 0.0008 µM): 0.8
viability ([12]; 0.004 µM): 0.783
viability ([12]; 0.02 µM): 0.66
viability ([12]; 0.1 µM): 0.478
viability ([12]; 0.5 µM): 0.322
viability ([13]; 0.024 µM): 0.897
viability ([13]; 0.12 µM): 0.665
viability ([13]; 0.6 µM): 0.411
viability ([13]; 3 µM): 0.283
viability ([13]; 15 µM): 0.183
viability ([14]; 0.024 µM): 0.332
viability ([14]; 0.12 µM): 0.303
viability ([14]; 0.6 µM): 0.267
viability ([14]; 3 µM): 0.217
viability ([14]; 15 µM): 0.165
viability ([15]; 0.024 µM): 0.807
viability ([15]; 0.12 µM): 1.15
viability ([15]; 0.6 µM): 0.924
viability ([15]; 3 µM): 1.43
viability ([15]; 15 µM): 1.68

primary AML patient cells (S037)
viability ([1]; 0.024 µM): 0.993
viability ([1]; 0.12 µM): 1.04
viability ([1]; 0.6 µM): 0.983
viability ([1]; 3 µM): 0.919
viability ([1]; 15 µM): 0.865
viability ([2]; 0.024 µM): 1.06
viability ([2]; 0.12 µM): 1.08
viability ([2]; 0.6 µM): 1.05
viability ([2]; 3 µM): 1.05
viability ([2]; 15 µM): 0.873
viability ([3]; 0.024 µM): 0.885
viability ([3]; 0.12 µM): 1.12
viability ([3]; 0.6 µM): 0.857
viability ([3]; 3 µM): 1.17
viability ([3]; 15 µM): 0.911
viability ([4]; 0.024 µM): 1.15
viability ([4]; 0.12 µM): 1.09
viability ([4]; 0.6 µM): 1.04
viability ([4]; 3 µM): 1.03
viability ([4]; 15 µM): 0.945
viability ([5]; 0.024 µM): 1.21
viability ([5]; 0.12 µM): 0.971
viability ([5]; 0.6 µM): 0.96
viability ([5]; 3 µM): 1.03
viability ([5]; 15 µM): 0.986
viability ([6]; 0.08 µM): 1.07
viability ([6]; 0.4 µM): 1.15
viability ([6]; 2 µM): 1.08
viability ([7]; 0.00064 µM): 1.11
viability ([7]; 0.0032 µM): 0.689
viability ([7]; 0.016 µM): 0.427
viability ([7]; 0.08 µM): 0.682
viability ([7]; 0.4 µM): 0.504
viability ([8]; 0.016 µM): 1.11
viability ([8]; 0.08 µM): 1.13
viability ([8]; 0.4 µM): 1.07
viability ([8]; 2 µM): 1.08
viability ([8]; 10 µM): 1.14
viability ([9]; 0.008 µM): 0.879
viability ([9]; 0.04 µM): 0.924
viability ([9]; 0.2 µM): 0.94
viability ([9]; 1 µM): 0.977
viability ([9]; 5 µM): 0.967
viability ([10]; 0.024 µM): 0.99
viability ([10]; 0.12 µM): 1.13
viability ([10]; 0.6 µM): 1.02
viability ([10]; 3 µM): 0.885
viability ([10]; 15 µM): 0.315
viability ([11]; 0.024 µM): 0.958
viability ([11]; 0.12 µM): 0.799
viability ([11]; 0.6 µM): 0.522
viability ([11]; 3 µM): 0.38
viability ([11]; 15 µM): 0.38
viability ([12]; 0.0008 µM): 0.884
viability ([12]; 0.004 µM): 0.929
viability ([12]; 0.02 µM): 0.923
viability ([12]; 0.1 µM): 0.846
viability ([12]; 0.5 µM): 0.831
viability ([13]; 0.024 µM): 0.992
viability ([13]; 0.12 µM): 0.922
viability ([13]; 0.6 µM): 0.629
viability ([13]; 3 µM): 0.508
viability ([13]; 15 µM): 0.439
viability ([14]; 0.024 µM): 0.593
viability ([14]; 0.12 µM): 0.389
viability ([14]; 0.6 µM): 0.337
viability ([14]; 3 µM): 0.337
viability ([14]; 15 µM): 0.242
viability ([15]; 0.024 µM): 0.931
viability ([15]; 0.12 µM): 1.03
viability ([15]; 0.6 µM): 0.892
viability ([15]; 3 µM): 1.12
viability ([15]; 15 µM): 1.06

primary B-PLL patient cells (S016)
viability ([1]; 0.024 µM): 1.01
viability ([1]; 0.12 µM): 1.03
viability ([1]; 0.6 µM): 1.09
viability ([1]; 3 µM): 1.05
viability ([1]; 15 µM): 0.84
viability ([2]; 0.024 µM): 0.896
viability ([2]; 0.12 µM): 1.03
viability ([2]; 0.6 µM): 0.898
viability ([2]; 3 µM): 1.04
viability ([2]; 15 µM): 0.674
viability ([3]; 0.024 µM): 0.508
viability ([3]; 0.12 µM): 0.619
viability ([3]; 0.6 µM): 0.702
viability ([3]; 3 µM): 0.758
viability ([3]; 15 µM): 0.358
viability ([4]; 0.024 µM): 1.1
viability ([4]; 0.12 µM): 1.01
viability ([4]; 0.6 µM): 0.996
viability ([4]; 3 µM): 0.921
viability ([4]; 15 µM): 0.882
viability ([5]; 0.024 µM): 0.982
viability ([5]; 0.12 µM): 0.945
viability ([5]; 0.6 µM): 0.979
viability ([5]; 3 µM): 0.909
viability ([5]; 15 µM): 1
viability ([6]; 0.016 µM): 1.07
viability ([6]; 0.08 µM): 0.938
viability ([6]; 0.4 µM): 1.1
viability ([6]; 2 µM): 0.793
viability ([6]; 10 µM): 0.66
viability ([7]; 0.00064 µM): 0.824
viability ([7]; 0.0032 µM): 0.424
viability ([7]; 0.016 µM): 0.0534
viability ([7]; 0.08 µM): 0.0414
viability ([7]; 0.4 µM): 0.0709
viability ([8]; 0.016 µM): 1.31
viability ([8]; 0.08 µM): 1.07
viability ([8]; 0.4 µM): 1.11
viability ([8]; 2 µM): 1.09
viability ([8]; 10 µM): 1.16
viability ([9]; 0.008 µM): 0.99
viability ([9]; 0.04 µM): 1.07
viability ([9]; 0.2 µM): 1.01
viability ([9]; 1 µM): 1.19
viability ([9]; 5 µM): 1.02
viability ([10]; 0.024 µM): 0.979
viability ([10]; 0.12 µM): 1.07
viability ([10]; 0.6 µM): 0.884
viability ([10]; 3 µM): 0.692
viability ([10]; 15 µM): 0.0511
viability ([11]; 0.024 µM): 1.07
viability ([11]; 0.12 µM): 0.793
viability ([11]; 0.6 µM): 0.4
viability ([11]; 3 µM): 0.177
viability ([11]; 15 µM): 0.0354
viability ([12]; 0.0008 µM): 0.974
viability ([12]; 0.004 µM): 0.97
viability ([12]; 0.02 µM): 0.973
viability ([12]; 0.1 µM): 1.06
viability ([12]; 0.5 µM): 1.19
viability ([13]; 0.024 µM): 0.989
viability ([13]; 0.12 µM): 1.07
viability ([13]; 0.6 µM): 0.892
viability ([13]; 3 µM): 0.928
viability ([13]; 15 µM): 0.402
viability ([14]; 0.024 µM): 0.188
viability ([14]; 0.12 µM): 0.0649
viability ([14]; 0.6 µM): 0.0214
viability ([14]; 3 µM): 0.0129
viability ([14]; 15 µM): 0.00911
viability ([15]; 0.024 µM): 0.934
viability ([15]; 0.12 µM): 0.948
viability ([15]; 0.6 µM): 1.02
viability ([15]; 3 µM): 1.01
viability ([15]; 15 µM): 0.981

From the supplement of paper PMC10733146
